Results taken from PubChem BioAssay (NCI).
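96-well plates; 48 h exposure; 5 concentrations. Endpoints by linear interpolation between flanking doses. Not reached: highest tested concentration assigned. GI50 = concentration required for 50% inhibition of growth. TGI: concentration producing complete growth inhibition.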

The compounds below were run on UACC-62 melanoma (assay: NCI anticancer screen, dose series, 48 h).
`c1ccc(C2Nc3ccccc3C3OCCCC23)cc1` (stereo unspecified) showed a TGI of 58.5 µM.
`CCOc1cc(C(C)(C)C)ccc1C1=N[C@@](C)(c2ccc(Cl)cc2)[C@@](C)(c2ccc(Cl)cc2)N1C(=O)N1CCN(CCCS(C)(=O)=O)CC1` showed a GI50 of 0.708 µM and a TGI of 6.41 µM.

These compounds were tested on OVCAR-3 ovarian (assay: NCI anticancer screen, dose series, 48 h).
Work on `O=C1[C@@H]2C(c3ccccc3F)=NO[C@@H]2C(=O)N1c1ccc(Cc2ccc(N3C(=O)[C@H]4C(c5ccccc5F)=NO[C@H]4C3=O)cc2)cc1` yielded a TGI of over 100 µM.
Compound `C=CCc1ccc(Oc2cc(CC=C)c3c(c2O)O[C@@H](CO)[C@H]3c2ccc(O)c(-c3cc(CC=C)ccc3O)c2)cc1` has a TGI of over 100 µM.
`Cn1c2ccccc2c(=O)c2ccc(Cl)cc21` gave a TGI of over 10 µM.
`O=C(NCO)NCOCn1c(=O)n(CO)c(=O)n(CO)c1=O` showed a TGI of over 100 µM.
`Cc1ccc(-c2nc3ccc(Cl)cc3c(=O)n2N2C(=O)CSC2c2ccccc2Cl)cc1` (stereo unspecified) was tested, and the GI50 was 5.44 µM and the TGI was over 100 µM.
`Clc1ccc2c(c1)-c1c3c(nn1-c1ccccc1)-c1ccccc1SC3O2` (stereo unspecified) gave a TGI of over 100 µM.
Compound `C#Cc1c(I)n(C2OC(CO[Si](C)(C)C(C)(C)C)C3OC(C)(C)OC32)c(=O)[nH]c1=O` (stereo unspecified) has a GI50 of 1.65 µM and a TGI of 3.56 µM.
Compound `O=C1OC2CCCC[C@@H]2C2C[C@]34CCCCC3[C@@H](C(=O)O4)C12` (stereo partly specified) has a TGI of over 100 µM.
In the case of `CN(C)c1cc[c]([Sn]([c]2ccc(N(C)C)cc2)([c]2ccc(N(C)C)cc2)[c]2ccc(N(C)C)cc2)cc1`, the GI50 was 3.38 µM and the TGI was 18.9 µM.
Compound `CCCSc1nc(COC(=O)NC)c(COC(=O)NC)n1C` has a TGI of over 100 µM.
With `O=C1CCC(O)=C1N=Nc1ccccc1` the TGI was over 100 µM.
`C=C1CCC(CC[C@@H]2CC[C@]3(OC2)O[C@@]2(O)CC[C@]3(C)OC2(C)C)C(C)(C)[C@H]1C/C=C1/C(=O)OC[C@@H]1O` (stereo partly specified) gave a TGI of 7.41 µM.
`CCN(CC)c1ccc(N=Nc2ccc(-c3nc4ccc[n+](C)c4s3)cc2)cc1` showed a TGI of 15.9 µM.
Compound `C[C@]12CC[C@@H]3c4cc(OCC(F)(F)F)c(O)cc4/C(=N/O)C[C@H]3[C@@H]1CC[C@@H]2O` has a TGI of 0.0269 µM.
In the case of `NC(=O)NCc1c(C(N)=O)ncn1Cc1ccccc1`, the TGI was over 100 µM.
With `COc1cc(/C=C/c2ccc(OC)c(OC)c2)cc(OC)c1` the TGI was 69 µM.
Compound `O=C1CSC(/C(=N/Nc2ccccc2)c2nc3ccccc3[nH]2)=N1` has a TGI of 73.2 µM.
`CN(C)CCN1C(=O)c2ccc3c4c(ccc(c24)C1=O)C(=O)N(CCN=C=S)C3=O` gave a GI50 of 0.0267 µM and a TGI of 0.0897 µM.
For `O=C(c1ccccc1)C1OC12C(=O)Nc1ccccc12` (stereo unspecified), the TGI was 97 µM.
`COc1ccc2nc(NC(=O)C(=O)C(C#N)c3ccc([N+](=O)[O-])cc3)sc2c1` (stereo unspecified) gave a TGI of over 100 µM.
`COc1cccc(C#Cc2ccccc2C#CCCCCO)c1` was tested, and the GI50 was 10.7 µM and the TGI was 28.8 µM.
For `O=C(O)[C@H](NS(=O)(=O)c1ccc([N+](=O)[O-])cc1)c1ccccc1`, the TGI was over 100 µM.
Work on `S=C1OC2CCCC[C@H]2O1` (stereo partly specified) yielded a TGI of over 100 µM.
Compound `O=C1/C(=C/c2cccc([N+](=O)[O-])c2)COc2ccc(Br)cc21` has a TGI of over 100 µM.
For `CSC(C1c2ccccc2N(c2ccc(C)cc2)c2[nH]c(=O)n(C)c(=O)c21)S(=O)(=O)c1ccc(C)cc1` (stereo unspecified), the TGI was over 100 µM.
Work on `CCOC(=O)NC(=O)c1cn(CCCOC(=O)CCCCCCCCCCC(=O)OCCCn2cc(C(=O)NC(=O)OCC)c(=O)[nH]c2=O)c(=O)[nH]c1=O` yielded a TGI of over 100 µM.
`COc1cc(/C=C(\C#N)c2ccccc2)cc(OC)c1` was tested, and the TGI was over 100 µM.
`N#Cc1cccnc1Cl` gave a TGI of over 100 µM.
In the case of `CC(=O)N[C@H]1CSSC[C@@H](C(N)=O)NC(=O)[C@H](C(C)C)NC(=O)[C@H](C)NC(=O)[C@H](Cc2cnc[nH]2)NC1=O`, the GI50 was over 100 µM and the TGI was over 100 µM.
For `CCCCCCCCCCCC(=O)OCC1OC(OC)C(NC(=O)N(CCCl)N=O)C(O)C1O` (stereo unspecified), the TGI was 33.4 µM.
For `C=CC/C=C/C/C=C/CCCCCCCc1cccc(O)c1C(=O)O`, the TGI was over 100 µM.
`COc1ccc(OC)c2c(C(=O)O)c(Cc3ccccc3)ccc12` was tested, and the TGI was over 100 µM.
`O=C(Nc1c(Cl)cc([N+](=O)[O-])cc1Cl)C(=O)C(C1OC(=O)c2ccccc21)[N+](=O)[O-]` (stereo unspecified) gave a TGI of over 100 µM.
`Cc1c(C(=O)/C=C/c2ccccc2)[n+](=O)c2ccccc2n1[O-]` gave a TGI of 30.6 µM.
`N#CC1CC2(C1)OCCS2` (stereo unspecified) gave a TGI of over 100 µM.
Compound `COc1cc(NC(C)CCCN)c2nccc(C)c2c1` (stereo unspecified) has a TGI of 67.9 µM.
With `C1C[OH+]CC[OH+]CC[OH+]CC[OH+]CC[OH+]1.[Cl-].[V]` the GI50 was 58.2 µM and the TGI was over 100 µM.
With `CCCCCCCCCCCCCCCCCCOc1ccccc1CC(=O)OCC[N+]1(C)CCCC1` the GI50 was 1.63 µM and the TGI was 3.13 µM.
Compound `CC(=O)C(=CN1CCN(C(=O)c2ccco2)C1=S)C(C)=O` has a GI50 of 11.4 µM and a TGI of 35.9 µM.
`CCOc1cc(C(C)(C)C)ccc1C1=N[C@@](C)(c2ccc(Cl)cc2)[C@@](C)(c2ccc(Cl)cc2)N1C(=O)N1CCN(CCCS(C)(=O)=O)CC1` was tested, and the GI50 was 11.5 µM and the TGI was 25.7 µM.

The compounds below were run on HT29 colon (assay: NCI anticancer screen, dose series, 48 h).
`O=C1[C@@H]2C(c3ccccc3F)=NO[C@@H]2C(=O)N1c1ccc(Cc2ccc(N3C(=O)[C@H]4C(c5ccccc5F)=NO[C@H]4C3=O)cc2)cc1` gave a TGI of over 100 µM.
`C=CCc1ccc(Oc2cc(CC=C)c3c(c2O)O[C@@H](CO)[C@H]3c2ccc(O)c(-c3cc(CC=C)ccc3O)c2)cc1` was tested, and the TGI was 49.1 µM.
With `Cn1c2ccccc2c(=O)c2ccc(Cl)cc21` the TGI was over 10 µM.
`O=C(NCO)NCOCn1c(=O)n(CO)c(=O)n(CO)c1=O` gave a TGI of 99.7 µM.
Work on `Cc1ccc(-c2nc3ccc(Cl)cc3c(=O)n2N2C(=O)CSC2c2ccccc2Cl)cc1` (stereo unspecified) yielded a GI50 of 60.2 µM and a TGI of over 100 µM.
Work on `Clc1ccc2c(c1)-c1c3c(nn1-c1ccccc1)-c1ccccc1SC3O2` (stereo unspecified) yielded a TGI of over 100 µM.
`C#Cc1c(I)n(C2OC(CO[Si](C)(C)C(C)(C)C)C3OC(C)(C)OC32)c(=O)[nH]c1=O` (stereo unspecified) was tested, and the GI50 was 19.2 µM and the TGI was 52.2 µM.
Compound `O=C1OC2CCCC[C@@H]2C2C[C@]34CCCCC3[C@@H](C(=O)O4)C12` (stereo partly specified) has a TGI of over 100 µM.
Compound `CN(C)c1cc[c]([Sn]([c]2ccc(N(C)C)cc2)([c]2ccc(N(C)C)cc2)[c]2ccc(N(C)C)cc2)cc1` has a GI50 of 2.91 µM and a TGI of 12.7 µM.
In the case of `CCCSc1nc(COC(=O)NC)c(COC(=O)NC)n1C`, the TGI was over 100 µM.
Work on `O=C1CCC(O)=C1N=Nc1ccccc1` yielded a TGI of over 100 µM.
`C=C1CCC(CC[C@@H]2CC[C@]3(OC2)O[C@@]2(O)CC[C@]3(C)OC2(C)C)C(C)(C)[C@H]1C/C=C1/C(=O)OC[C@@H]1O` (stereo partly specified) gave a TGI of 5.01 µM.
`CCN(CC)c1ccc(N=Nc2ccc(-c3nc4ccc[n+](C)c4s3)cc2)cc1` was tested, and the TGI was 18.5 µM.
Compound `C[C@]12CC[C@@H]3c4cc(OCC(F)(F)F)c(O)cc4/C(=N/O)C[C@H]3[C@@H]1CC[C@@H]2O` has a TGI of 13.2 µM.
`NC(=O)NCc1c(C(N)=O)ncn1Cc1ccccc1` showed a TGI of over 100 µM.
Work on `COc1cc(/C=C/c2ccc(OC)c(OC)c2)cc(OC)c1` yielded a TGI of 94.4 µM.
Work on `O=C1CSC(/C(=N/Nc2ccccc2)c2nc3ccccc3[nH]2)=N1` yielded a TGI of over 100 µM.
`CN(C)CCN1C(=O)c2ccc3c4c(ccc(c24)C1=O)C(=O)N(CCN=C=S)C3=O` was tested, and the GI50 was 0.0297 µM and the TGI was 0.115 µM.
Compound `O=C(c1ccccc1)C1OC12C(=O)Nc1ccccc12` (stereo unspecified) has a TGI of 37.9 µM.
For `COc1ccc2nc(NC(=O)C(=O)C(C#N)c3ccc([N+](=O)[O-])cc3)sc2c1` (stereo unspecified), the TGI was over 100 µM.
Work on `COc1cccc(C#Cc2ccccc2C#CCCCCO)c1` yielded a GI50 of 12.1 µM and a TGI of 27.9 µM.
With `O=C(O)[C@H](NS(=O)(=O)c1ccc([N+](=O)[O-])cc1)c1ccccc1` the TGI was over 100 µM.
`S=C1OC2CCCC[C@H]2O1` (stereo partly specified) was tested, and the TGI was over 100 µM.
`O=C1/C(=C/c2cccc([N+](=O)[O-])c2)COc2ccc(Br)cc21` showed a TGI of over 100 µM.
`CSC(C1c2ccccc2N(c2ccc(C)cc2)c2[nH]c(=O)n(C)c(=O)c21)S(=O)(=O)c1ccc(C)cc1` (stereo unspecified) was tested, and the TGI was over 100 µM.
With `CCOC(=O)NC(=O)c1cn(CCCOC(=O)CCCCCCCCCCC(=O)OCCCn2cc(C(=O)NC(=O)OCC)c(=O)[nH]c2=O)c(=O)[nH]c1=O` the TGI was over 100 µM.
With `COc1cc(/C=C(\C#N)c2ccccc2)cc(OC)c1` the TGI was over 100 µM.
`N#Cc1cccnc1Cl` was tested, and the TGI was over 100 µM.
`CC(=O)N[C@H]1CSSC[C@@H](C(N)=O)NC(=O)[C@H](C(C)C)NC(=O)[C@H](C)NC(=O)[C@H](Cc2cnc[nH]2)NC1=O` gave a GI50 of over 100 µM and a TGI of over 100 µM.
Compound `CCCCCCCCCCCC(=O)OCC1OC(OC)C(NC(=O)N(CCCl)N=O)C(O)C1O` (stereo unspecified) has a TGI of 31.2 µM.
Compound `C=CC/C=C/C/C=C/CCCCCCCc1cccc(O)c1C(=O)O` has a TGI of over 100 µM.
`COc1ccc(OC)c2c(C(=O)O)c(Cc3ccccc3)ccc12` gave a TGI of over 100 µM.
Work on `O=C(Nc1c(Cl)cc([N+](=O)[O-])cc1Cl)C(=O)C(C1OC(=O)c2ccccc21)[N+](=O)[O-]` (stereo unspecified) yielded a TGI of over 100 µM.
`Cc1c(C(=O)/C=C/c2ccccc2)[n+](=O)c2ccccc2n1[O-]` was tested, and the TGI was 35.7 µM.
`N#CC1CC2(C1)OCCS2` (stereo unspecified) showed a TGI of over 100 µM.
`COc1cc(NC(C)CCCN)c2nccc(C)c2c1` (stereo unspecified) gave a TGI of over 100 µM.
`C1C[OH+]CC[OH+]CC[OH+]CC[OH+]CC[OH+]1.[Cl-].[V]` gave a GI50 of over 100 µM and a TGI of over 100 µM.
In the case of `CC(=O)C(=CN1CCN(C(=O)c2ccco2)C1=S)C(C)=O`, the GI50 was 17.1 µM and the TGI was 53.8 µM.
`CCOc1cc(C(C)(C)C)ccc1C1=N[C@@](C)(c2ccc(Cl)cc2)[C@@](C)(c2ccc(Cl)cc2)N1C(=O)N1CCN(CCCS(C)(=O)=O)CC1` gave a GI50 of 2.96 µM and a TGI of 9.28 µM.
